Legend:
[1] = tested on: BH murine tumor archive (HER2-dependent murine breast tumors); assay: Tumor response to tivozanib in subcutaneously transplanted BH archive murine breast tumors; format: in vivo, mouse
Excerpt: (§1) A genetically diverse population of more than 100 murine breast tumors (BH archive) was used to identify tumors that are sensitive to a drug of interest (responders) and tumors that are resistant to the same drug of interest (non-responders). The BH archive was established by in vivo propagation and cryopreservation of primary tumor material from more than 100 spontaneous murine breast tumors derived from engineered chimeric mice that develop HER2-dependent, inducible spontaneous breast tumors.
The BH archive of more than 100 tumors was produced essentially as follows. Primary tumor cells were isolated from the chimeric animals by physical disruption of the tumors using cell strainers. Typically 1×10^5 cells were mixed with Matrigel (50:50 by vol.) and injected subcutaneously into female NCr nu/nu mice. When these tumors grew to approximately 500 mm3, which typically required 2 to 4 weeks, they were collected for one further round of in vivo propagation, after which tumor material was cryopreserved in liquid nitrogen. To characterize the propagated and archived tumors, 1×10^5 cells from each individual tumor line were thawed and injected subcutaneously in BALB/c nude mice. When the tumors reached a mean size of 500 to 800 mm3, animals were sacrificed and tumors were surgically removed for further analysis.
Tumors in the BH murine tumor archive were tested for sensitivity to treatment with tivozanib. Evaluation of tumor response to this drug treatment was performed essentially as follows. Subcutaneously transplanted tumors were established by injecting physically disrupted tumor cells (mixed with Matrigel) into 6 week-old female BALB/c nude mice. When the tumors reached approximately 100-200 mm3, 20 tumor-bearing mice were randomized into two groups. Group 1 received vehicle. Group 2 received tivozanib at 5 mg/kg daily by oral gavage. Tumors were measured twice per week by a caliper, and tumor volume was calculated.
The variation in response was expected, because the mouse model tumors had been propagated from spontaneously arising tumors, and were therefore expected to contain differing sets of secondary de novo mutations that contributed to tumorogenesis. […] Tivozanib-sensitive tumors and tivozanib-resistant tumors were identified (classified) on the basis of tumor growth inhibition, histopathology and IHC (CD31).

[2] = tested on: BH murine tumor archive (HER2-dependent murine breast tumors); assay: Tumor response to rapamycin in subcutaneously transplanted BH archive murine breast tumors; format: in vivo, mouse; conditions: out of 66 tumors; 0.1 mg/kg daily, intraperitoneal injection
Excerpt: as §1
The BH archive of more than 100 tumors was produced essentially as follows. Primary tumor cells were isolated from the chimeric animals by physical disruption of the tumors using cell strainers. Typically 1×10^5 cells were mixed with Matrigel (50:50 by vol.) and injected subcutaneously into female NCr nu/nu mice. When these tumors grew to approximately 500 mm3, which typically required 2 to 4 weeks, they were collected for one further round of in vivo propagation, after which tumor material was cryopreserved in liquid nitrogen. […]
Tumors from the BH murine tumor archive were tested for sensitivity to treatment with rapamycin (also known as sirolimus, or RAPAMUNE®). […] Tumors were measured twice per week by a caliper, and tumor volume was calculated.

[3] = out of 25 tumors, 5 mg/kg tivozanib, classified by tumor growth inhibition, histopathology and IHC (CD31)

SMILES: COc1cc2nccc(Oc3ccc(NC(=O)Nc4cc(C)on4)c(Cl)c3)c2cc1OC [tivozanib]
- tumor progression (by caliper measurement) in tivozanib-sensitive tumors ([1]; 5 mg/kg daily by oral gavage, BALB/c nude mice, tivozanib-sensitive tumors): no tumor progression
- tumor killing in tivozanib-sensitive tumors ([1]; 5 mg/kg, tivozanib-sensitive tumors, histopathology): close to complete tumor killing, except for the peripheries
- number of tumors actually resistant [1, 3]: 16
- number of tumors actually sensitive [1, 3]: 9

SMILES: CO[C@H]1C[C@@H]2CC[C@@H](C)[C@@](O)(O2)C(=O)C(=O)N2CCCC[C@H]2C(=O)O[C@H]([C@H](C)C[C@@H]2CC[C@@H](O)[C@H](OC)C2)CC(=O)[C@H](C)/C=C(\C)[C@@H](O)[C@@H](OC)C(=O)[C@H](C)C[C@H](C)/C=C/C=C/C=C/1C [rapamycin]
- number of rapamycin-resistant tumors (50% tumor growth inhibition or less) [2]: 25
- number of rapamycin-sensitive tumors (more than 50% tumor growth inhibition) [2]: 41

Reference: US20130165343A1, “IDENTIFICATION OF MULTIGENE BIOMARKERS” (AVEO Pharmaceuticals, Inc., priority 2011, published 2013)
